Test results: US8378104B2 (OSI Pharmaceuticals, LLC, priority 2010, dated 2013)
pIC50: −log10 of the molar value. Counter-ions that a name gives are not always drawn.

What was measured:
TAK1-TAB1 fusion protein = biological target: T1, TAK1-TAB1 fusion protein (Homo sapiens, UniProt O43318); test: TAK1 biochemical assay (AlphaScreen, GST-MAP2K7 substrate); settings: TAK1-TAB1 fusion protein, GST-MAP2K7 substrate; read-out: mean TAK1 IC50 (Col. A)
T1 construct: purchased Carna
T1 sequence (O43318 with tags, fused parts or gaps limits assumed): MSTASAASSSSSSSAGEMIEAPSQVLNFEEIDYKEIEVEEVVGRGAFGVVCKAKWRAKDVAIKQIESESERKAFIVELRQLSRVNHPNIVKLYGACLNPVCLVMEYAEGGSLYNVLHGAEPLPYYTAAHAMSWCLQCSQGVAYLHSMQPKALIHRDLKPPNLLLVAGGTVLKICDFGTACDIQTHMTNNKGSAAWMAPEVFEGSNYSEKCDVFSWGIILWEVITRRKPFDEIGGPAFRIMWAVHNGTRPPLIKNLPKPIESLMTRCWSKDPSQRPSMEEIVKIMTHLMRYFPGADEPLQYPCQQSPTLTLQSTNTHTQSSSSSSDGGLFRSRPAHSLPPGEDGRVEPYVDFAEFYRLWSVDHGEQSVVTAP

pJNK in HCT-116 cells = test: Phospho-JNK (Thr183/Tyr185) Meso Scale ELISA assay, TNFα-stimulated HCT-116 cells; type: cell-based; settings: Homo sapiens, read-out: mean HCT-116 pJNK ELISA IC50 (Col. B)
Procedure, shortened: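 HCT-116 cells in 1% FCS medium were pretreated with compound for 4 hrs at 37° C, then stimulated with TNFα at 10 ng/mL final for 10 minutes. Lysates were taken in ice-cold lysis buffer with phosphatase and protease inhibitors, and phospho-JNK (Thr183/Tyr185) was measured by Meso Scale ELISA.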

p-p38 in HCT-116 cells = test: Phospho-p38 Meso Scale ELISA assay, TNFα-stimulated HCT-116 cells; type: cell-based; settings: Homo sapiens, read-out: mean HCT-116 p-p38 ELISA IC50 (Col. C)
Procedure: Detailed below are ELISA assays for pJNK and p38, and a TAK1 biochemical assay. […] In Table 1, Col.
• 1. Plate HCT-116 cells at 25,000 per well in 100 uL in 96 well clear dishes in normal growth medium. Day 2: • 1. Aspirate medium and replace with 90 μl reduced serum growth medium (1% FCS), incubate for 2 hours at 37° C. • 2. Make drugs at 10× in reduced serum medium and add 10 uL per well. • 3. Incubate at 37° C. for 4 hrs. • 4. Bring capture plates to room temperature. • 5. Block with 150 μl Blocking Solution (provided with kit) (600 mg Blocker A into 20 mL 1× Wash Buffer per plate) at room temperature with shaking. • 6. Wash plates 4× with 200 μl 1× wash buffer (10× provided with kit) before transferring lysates. • 7. Dilute TNFα to […] in reduced serum medium (this makes a 10× working stock). • 8. Add 10 μl TNFα to all wells except negative control wells, final concentration is 10 ng/mL. • 9. Incubate at 37° C. for 10 minutes. • 10. Remove medium by flicking into sink • 11. Wash cells with 100 uL ice cold PBS. • 12. Remove PBS by flicking into sink and patting on paper towels. • 13. Lyse cells in 50 μl ice cold 1× Complete Lysis Buffer plus Phosphatase and Protease inhibitors (all provided with kit) (10 mL Tris Lysis Buffer+200 μl Protease inhibitor solution+100 μl Phosphatase inhibitor I+100 μl Phosphatase inhibitor II). • 14. Incubate with shaking at 4° C. for 30 minutes. • 15. Transfer 45 μl to capture plate, cover with adhesive cover, and incubate at 4° C. over night with shaking. • Day 3: • 1. Wash plates 4× with 200 μl 1× wash buffer (10× provided with kit). • 2. […] Incubate at room temperature with shaking for 1 hour. • 4. Wash 4× with 200 μl 1× Wash Buffer. • 5. […] Read on Sector Imager. Phospho-p38 Meso Scale ELISA Assay Day 1: • 1. Plate HCT-116 cells at 25,000 per well in 100 uL in 96 well clear dishes in normal growth medium. zday 2: • 1. Aspirate medium and replace with 90 μl reduced serum growth medium (1% FCS), incubate for 2 hours at 37° C. • 2. Make drugs at 10× in reduced serum medium and add 10 uL per well. • 3. Incubate at 37° C. for 4 hrs. • 4. Bring capture plates to room temperature. • 5. Block with 150 μl Blocking Solution (provided with kit) (600 mg Blocker A into 20 mL 1× Wash Buffer per plate) at room temperature with shaking. • 6. Wash plates 4× with 200 μl 1× wash buffer (10× provided with kit) before transferring lysates. • 7. Dilute TNFα to […] in reduced serum medium (this makes a 10× working stock). • 8. Add 10 μl TNFα to all wells except negative control wells, final concentration is 10 ng/mL. • 9. Incubate at 37° C. for 10 minutes. • 10. Remove medium by flicking into sink • 11. Wash cells with 100 uL ice cold PBS. • 12. Remove PBS by flicking into sink and patting on paper towels. • 13. Lyse cells in 50 μl ice cold 1× Complete Lysis Buffer plus phosphatase and protease inhibitors (all provided with kit) (10 mL Tris Lysis Buffer+200 μl Protease inhibitor solution+100 μl Phosphatase inhibitor I+100 μl Phosphatase inhibitor II). • 14. Incubate with shaking at 4° C. for 30 minutes. • 15. Dilute lysates before transferring to capture plate with 100 μl Complete p38 Lysate • Dilution Buffer (provided with kit) (10 mL of Diluent 20±200 μl Protease inhibitor solution+100 μl Phosphatase inhibitor I+100 μl Phosphatase inhibitor II). • 16. Transfer 50 μl of diluted lysates to capture plate, cover with adhesive cover, and incubate at 4° C. over night with shaking. Day 3: • 1. Wash plates 4× with 200 μl 1× wash buffer (10× provided with kit). • 2. […] Incubate at room temperature with shaking for 1 hour. • 4. Wash 4× with 200 μl 1× Wash Buffer. • 5. […] Read on Sector Imager. TAK1 Biochemical Assay

Row | Structure (SMILES) | pIC50 (TAK1-TAB1 fusion protein) | pIC50 (pJNK in HCT-116 cells) | pIC50 (p-p38 in HCT-116 cells)
1 | CCN1CCC(n2cc(-c3cnc(N)c4oc(-c5cccc6cnccc56)cc34)cn2)CC1 [Example 78, 4-[1-(1-ethylpiperidin-4-yl)-1H-pyrazol-4-yl]-2-(isoquinolin-5-yl)furo[2,3-c]pyridin-7-amine] | 6.00 to 7.00 | 6.00 to 7.00 | 6.00 to 7.00
2 | CS(=O)(=O)N1CCC(n2cc(-c3cnc(N)c4oc(-c5cccc6cnccc56)cc34)cn2)CC1 [Example 80, 2-(isoquinolin-5-yl)-4-{1-[1-(methylsulfonyl)piperidin-4-yl]-1H-pyrazol-4-yl}furo[2,3-c]pyridin-7-amine] | 6.00 to 7.00 | > 7.00 | 6.00 to 7.00
3 | CC(=O)N1CCC(n2cc(-c3cnc(N)c4oc(-c5cccc6cnccc56)cc34)cn2)CC1 [Example 81, 1-(4-{4-[7-amino-2-(isoquinolin-5-yl)furo[2,3-c]pyridin-4-yl]-1H-pyrazol-1-yl}piperidin-1-yl)ethanone] | 6.00 to 7.00 | 6.00 to 7.00 | 6.00 to 7.00
4 | CS(=O)(=O)CCN1CCC(n2cc(-c3cnc(N)c4oc(-c5cccc6cnccc56)cc34)cn2)CC1 [Example 82, 2-(isoquinolin-5-yl)-4-(1-{1-[2-(methylsulfonyl)ethyl]piperidin-4-yl}-1H-pyrazol-4-yl)furo[2,3-c]pyridin-7-amine] | 6.00 to 7.00 | 6.00 to 7.00 | 6.00 to 7.00
5 | Nc1ncc(-c2cnn(C3CCN(CCF)CC3)c2)c2cc(-c3cccc4cnccc34)oc12 [Example 83, 4-{1-[1-(2-fluoroethyl)piperidin-4-yl]-1H-pyrazol-4-yl}-2-(isoquinolin-5-yl)furo[2,3-c]pyridin-7-amine] | 6.00 to 7.00 | > 7.00 | 6.00 to 7.00
6 | Nc1ncc(-c2cnn(C3CCN(CC(F)(F)F)CC3)c2)c2cc(-c3cccc4cnccc34)oc12 [Example 84, 2-(isoquinolin-5-yl)-4-{1-[1-(2,2,2-trifluoroethyl)piperidin-4-yl]-1H-pyrazol-4-yl}furo[2,3-c]pyridin-7-amine] | 5.00 to 6.00 | 6.00 to 7.00 | 6.00 to 7.00
7 | Nc1ncc(-c2cnn(C3CCN(CCO)CC3)c2)c2cc(-c3cccc4cnccc34)oc12 [Example 85, 2-(4-{-4-[7-amino-2-(isoquinolin-5-yl)furo[2,3-c]pyridin-4-yl]-1H-pyrazol-1-yl}piperidin-1-yl)ethanol] | 6.00 to 7.00 | 6.00 to 7.00 | 6.00 to 7.00
8 | Nc1ncc(-c2cnn(C3CCCCC3)c2)c2cc(-c3c[nH]c4cnccc34)oc12 [Example 89, 4-(1-cyclohexyl-1H-pyrazol-4-yl)-2-(1H-pyrrolo[2,3-c]pyridin-3-yl)furo[2,3-c]pyridin-7-amine] | > 7.00 | 6.00 to 7.00 | 6.00 to 7.00
9 | CC(=O)N1CCC(n2cc(-c3cnc(N)c4oc(-c5cc(C(F)(F)F)cc(C(F)(F)F)c5)cc34)cn2)CC1 [Example 91, 1-[4-(4-{7-amino-2-[3,5-bis(trifluoromethyl)phenyl]furo[2,3-c]pyridin-4-yl}-1H-pyrazol-1-yl)piperidin-1-yl]ethanone] | < 5.00 | 5.00 to 6.00 | 5.00 to 6.00
10 | CC(=O)N1CCC(n2cc(-c3cnc(N)c4oc(-c5ccc6[nH]ncc6c5)cc34)cn2)CC1 [Example 94, 1-(4-{4-[7-amino-2-(1H-indazol-5-yl)furo[2,3-c]pyridin-4-yl]-1H-pyrazol-1-yl}piperidin-1-yl)ethanone] | 6.00 to 7.00 | 6.00 to 7.00 | 5.00 to 6.00

Second part, the compound after the results:

Row | pIC50 (TAK1-TAB1 fusion protein) | pIC50 (pJNK in HCT-116 cells) | pIC50 (p-p38 in HCT-116 cells) | Structure (SMILES)
11 | 6.00 to 7.00 | 6.00 to 7.00 | 6.00 to 7.00 | CC(C)N1CCC(n2cc(-c3cnc(N)c4oc(-c5cccc6cnccc56)cc34)cn2)CC1 [Example 79, 2-(isoquinolin-5-yl)-4-{1-[1-(propan-2-yl)piperidin-4-yl]-1H-pyrazol-4-yl]furo[2,3-c]pyridin-7-amine]
12 | > 7.00 | 5.00 to 6.00 | 5.00 to 6.00 | CC(=O)N1CCC(n2cc(-c3cnc(N)c4oc(-c5c[nH]c6cnccc56)cc34)cn2)CC1 [Example 86, 1-(4-{4-[7-amino-2-(1H-pyrrolo[2,3-c]pyridin-3-yl)furo[2,3-c]pyridin-4-yl]-1H-pyrazol-1-yl}piperidin-1-yl)ethanone]
13 | > 7.00 | 6.00 to 7.00 | 5.00 to 6.00 | Nc1ncc(-c2cn[nH]c2)c2cc(-c3c[nH]c4cnccc34)oc12 [Example 87, 4-(1H-pyrazol-4-yl)-2-(1H-pyrrolo[2,3-c]pyridin-3-yl)furo[2,3-c]pyridin-7-amine trifluoroacetic acid salt]
14 | > 7.00 | 6.00 to 7.00 | 6.00 to 7.00 | Cn1cc(-c2cnc(N)c3oc(-c4c[nH]c5cnccc45)cc23)cn1 [Example 88, 4-(1-methyl-1H-pyrazol-4-yl)-2-(1H-pyrrolo[2,3-c]pyridin-3-yl)furo[2,3-c]pyridin-7-amine trifluoroacetic acid salt]
15 | > 7.00 | 6.00 to 7.00 | > 7.00 | CC(C)n1cc(-c2cnc(N)c3oc(-c4c[nH]c5cnccc45)cc23)cn1 [Example 90, 4-[1-(propan-2-yl)-1H-pyrazol-4-yl]-2-(1H-pyrrolo[2,3-c]pyridin-3-yl)furo[2,3-c]pyridin-7-amine]
16 | 5.00 to 6.00 | 6.00 to 7.00 | 6.00 to 7.00 | CC(=O)N1CCC(n2cc(-c3cnc(N)c4oc(-c5ccc6[nH]ccc6c5)cc34)cn2)CC1 [Example 92, 1-(4-{4-[7-amino-2-(1H-indol-5-yl)furo[2,3-c]pyridin-4-yl]-1H-pyrazol-1-yl}piperidin-1-yl)ethanone]
17 | < 5.00 | 5.00 to 6.00 | 5.00 to 6.00 | CC(=O)N1CCC(n2cc(-c3cnc(N)c4oc(-c5cccc6c5oc5ccccc56)cc34)cn2)CC1 [Example 93, 1-(4-{4-[7-amino-2-(dibenzo[b,d]furan-4-yl)furo[2,3-c]pyridin-4-yl]-1H-pyrazol-1-yl}piperidin-1-yl)ethanone]
18 | 6.00 to 7.00 | 5.00 to 6.00 | < 5.00 | CC(=O)N1CCC(n2cc(-c3cnc(N)c4oc(-c5ccc6c(c5)C(=O)NC6)cc34)cn2)CC1 [Example 96, 6-{4-[1-(1-acetylpiperidin-4-yl)-1H-pyrazol-4-yl]-7-aminofuro[2,3-c]pyridin-2-yl}-2,3-dihydro-1H-isoindol-1-one]
